Experimental data taken from publication PMC10213797 (Acta Pharmaceutica Sinica. B, 2023).

Experiments:
hBChE = hBChE (Homo sapiens, UniProt P06276); assay: hBChE inhibition, Ellman's method; type: biochemical; conditions: IC50 ± SEM hBChE, Table 1; n = 3, in triplicates
hAChE = hAChE (Homo sapiens, UniProt P22303); assay: hAChE inhibition, Ellman's method; type: biochemical
hMAO-B = molecular target: T1, hMAO-B (Homo sapiens, UniProt P27338); assay: hMAO-B inhibition, horseradish-Amplex Red coupled assay; type: biochemical
T1 sequence (P27338 1-520): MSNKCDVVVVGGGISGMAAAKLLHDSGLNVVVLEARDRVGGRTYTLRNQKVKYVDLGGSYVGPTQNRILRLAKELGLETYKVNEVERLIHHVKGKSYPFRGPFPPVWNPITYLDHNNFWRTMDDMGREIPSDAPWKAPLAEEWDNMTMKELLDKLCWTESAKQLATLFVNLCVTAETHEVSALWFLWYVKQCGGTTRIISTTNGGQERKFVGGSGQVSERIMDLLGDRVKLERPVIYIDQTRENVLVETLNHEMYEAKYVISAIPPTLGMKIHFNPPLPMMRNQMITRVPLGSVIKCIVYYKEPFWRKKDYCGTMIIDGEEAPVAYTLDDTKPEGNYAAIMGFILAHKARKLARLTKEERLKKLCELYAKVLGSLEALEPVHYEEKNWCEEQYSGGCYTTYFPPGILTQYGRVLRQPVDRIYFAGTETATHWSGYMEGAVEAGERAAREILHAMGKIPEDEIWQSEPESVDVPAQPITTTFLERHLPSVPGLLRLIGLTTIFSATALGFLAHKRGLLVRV

hMAO-A = molecular target: T2, hMAO-A (Homo sapiens, UniProt P21397); assay: hMAO-A inhibition, horseradish-Amplex Red coupled assay; type: biochemical
T2 sequence (P21397 1-527): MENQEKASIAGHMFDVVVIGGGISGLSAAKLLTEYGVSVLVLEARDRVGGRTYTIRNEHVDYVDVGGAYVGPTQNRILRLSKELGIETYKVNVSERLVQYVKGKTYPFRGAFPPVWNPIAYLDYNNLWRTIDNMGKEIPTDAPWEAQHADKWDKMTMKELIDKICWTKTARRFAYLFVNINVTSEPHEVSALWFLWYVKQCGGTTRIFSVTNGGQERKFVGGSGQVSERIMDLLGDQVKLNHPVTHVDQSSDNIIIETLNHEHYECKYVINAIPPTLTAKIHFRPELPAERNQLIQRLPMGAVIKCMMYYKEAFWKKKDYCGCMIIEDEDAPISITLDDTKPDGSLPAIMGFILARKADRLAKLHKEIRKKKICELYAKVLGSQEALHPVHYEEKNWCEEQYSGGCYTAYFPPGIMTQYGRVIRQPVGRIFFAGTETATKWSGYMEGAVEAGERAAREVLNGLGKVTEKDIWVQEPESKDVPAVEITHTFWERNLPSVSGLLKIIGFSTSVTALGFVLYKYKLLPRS

BBB-PAMPA permeability = conditions: pH 7.4, 4 h, 25 °C, brain sink buffer; for Papp at 4 h, 100 μmol/L: PAMPA, pH 7.4, BBB–PAMPA permeability Papp (mean ± SD)
Aβ1–42 = Aβ1–42 (Homo sapiens, UniProt P05067); assay: Aβ1–42 aggregation inhibition, ThT fluorescence assay; type: biochemical; conditions: 10 μmol/L ligand and 1.5 μmol/L Aβ1–42; mean ± SD (n ≥ 3)
[1] = DPPH radical-scavenging assay; conditions: means ± SEM (n = 2, in triplicates); for EC50: read-out: Radical-scavenging DPPH assay EC50
[2] = tested on: scopolamine-induced amnesic mice; assay: Passive avoidance; type: in vivo; conditions: doses of one and 2 mg/kg; P < 0.001
mice = assay: Rotarod test; type: in vivo; conditions: 2.5 mg/kg
[3] = molecular target: Electrophorus electricus AChE (eeAChE); conditions: cited from earlier work
[4] = molecular target: horse serum BChE (eqBChE); conditions: cited from earlier work
murine AChE = conditions: cited from earlier work

Sequence of hBChE (P06276 29-602): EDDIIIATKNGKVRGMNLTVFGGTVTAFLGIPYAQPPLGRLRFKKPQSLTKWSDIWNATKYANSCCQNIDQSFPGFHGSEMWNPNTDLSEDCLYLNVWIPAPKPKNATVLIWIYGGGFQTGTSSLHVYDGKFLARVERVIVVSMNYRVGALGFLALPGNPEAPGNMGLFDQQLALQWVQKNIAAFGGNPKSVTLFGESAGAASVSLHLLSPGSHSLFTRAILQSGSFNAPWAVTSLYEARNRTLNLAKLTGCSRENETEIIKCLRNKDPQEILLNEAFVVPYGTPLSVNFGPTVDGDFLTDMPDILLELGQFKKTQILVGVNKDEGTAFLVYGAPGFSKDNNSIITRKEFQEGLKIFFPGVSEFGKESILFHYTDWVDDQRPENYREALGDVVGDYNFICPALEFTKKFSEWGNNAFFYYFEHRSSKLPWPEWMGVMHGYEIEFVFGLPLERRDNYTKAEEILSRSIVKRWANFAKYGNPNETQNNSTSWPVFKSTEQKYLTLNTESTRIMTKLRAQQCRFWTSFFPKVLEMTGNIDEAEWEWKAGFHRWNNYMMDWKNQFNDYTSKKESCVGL
Sequence of Aβ1–42 (P05067 672-713): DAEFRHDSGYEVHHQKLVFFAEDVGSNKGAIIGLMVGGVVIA
Sequence of hAChE (P22303 32-614): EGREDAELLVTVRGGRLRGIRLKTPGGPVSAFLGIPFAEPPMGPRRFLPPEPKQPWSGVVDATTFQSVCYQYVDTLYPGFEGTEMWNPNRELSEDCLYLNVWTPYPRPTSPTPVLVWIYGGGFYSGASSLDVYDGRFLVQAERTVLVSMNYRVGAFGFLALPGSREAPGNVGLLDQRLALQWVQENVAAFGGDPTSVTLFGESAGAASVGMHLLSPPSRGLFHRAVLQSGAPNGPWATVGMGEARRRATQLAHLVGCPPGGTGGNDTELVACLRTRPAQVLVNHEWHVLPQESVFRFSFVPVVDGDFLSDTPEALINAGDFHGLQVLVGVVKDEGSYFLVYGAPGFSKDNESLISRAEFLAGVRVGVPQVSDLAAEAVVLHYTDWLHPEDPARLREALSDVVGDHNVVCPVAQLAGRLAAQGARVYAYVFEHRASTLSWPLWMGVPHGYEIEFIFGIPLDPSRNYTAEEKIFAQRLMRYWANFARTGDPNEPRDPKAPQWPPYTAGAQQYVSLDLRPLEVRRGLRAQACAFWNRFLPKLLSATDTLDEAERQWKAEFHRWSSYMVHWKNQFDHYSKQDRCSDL

COc1cccc2cc(/C=[N+](\[O-])C(C)(C)C)c(Cl)nc12 [QN 9, (Z)-N-tert-Butyl-1-(2-chloro-8-methoxyquinolin-3-yl)methanimine oxide]
IC50 (hBChE): 15.2 ± 1.1 µM

C#CCN1CCN(CCCOc2cccc3cc(/C=[N+](\[O-])C(C)(C)C)c(Cl)nc23)CC1 [QN 7, (Z)-N-tert-Butyl-1-(2-chloro-8-(3-(4-(prop-2-yn-1-yl)piperazin-1-yl)propoxy)quinolin-3-yl)methanimine oxide]
IC50 (hBChE): 13.3 ± 0.9 µM

C#CCN1CCN(CCCOc2nc3c(OC)cccc3cc2/C=[N+](\[O-])Cc2ccccc2)CC1 [QN 4, (Z)-N-Benzyl-1-(8-methoxy-2-(3-(4-(prop-2-yn-1-yl)piperazin-1-yl)propoxy)quinolin-3-yl)methanimine oxide]
IC50 (hBChE): 3.06 ± 0.29 µM

[O-]/[N+](=C\c1cc2cccc(OCCCN3CCCCC3)c2nc1Cl)Cc1ccccc1 [QN 6, (Z)-N-Benzyl-1-(2-chloro-8-(3-(piperidin-1-yl)propoxy)quinolin-3-yl)methanimine oxide]
IC50 (hAChE): 68.6 ± 13.6 µM
IC50 (hBChE): 10.2 ± 1.1 µM
IC50 (hMAO-B): 50.4 ± 4.5 µM
IC50 (hMAO-A): 106 ± 3.7 µM

O=Cc1ccc2cccc(O)c2n1 [QN 30, 8-hydroxyquinoline-2-carbaldehyde]
IC50 (hMAO-B): 43.9 ± 3.4 µM

CC(C)(C)/[N+]([O-])=C/c1ccc2cccc(O)c2n1 [QN 18, (Z)-N-tert-Butyl-1-(8-hydroxyquinolin-2-yl)methanimine oxide]
Papp at 4 h, 100 μmol/L (BBB-PAMPA permeability): 43.7 ± 4.1 ×10⁻⁶ cm/s
BBB–PAMPA permeability −LogPe (BBB-PAMPA permeability): 4.4 log [cm/s]
Inhibition of Aβ1–42 aggregation (Aβ1–42): n.i. ^e (n.i., no inhibition <20%)
EC50 [1]: 119 ± 1.2 µM

CC(C)(C)/[N+]([O-])=C/c1cc2cccc(OCCCN3CCCCC3)c2nc1Cl [QN 5, (Z)-N-tert-Butyl-1-(2-chloro-8-(3-(piperidin-1-yl)propoxy)quinolin-3-yl)methanimine oxide]
IC50 (hAChE): 44.7 ± 4.8 µM
IC50 (hBChE): 5.57 ± 0.46 µM
IC50 (hMAO-A): 113 ± 13.2 µM

CC(C)(C)/[N+]([O-])=C/c1cc2cccc(O)c2nc1Cl [QN 11, (Z)-N-tert-Butyl-1-(2-chloro-8-hydroxyquinolin-3-yl)methanimine oxide]
IC50 (hBChE): 12.4 ± 0.7 µM

C#CCN1CCN(CCCOc2cccc3ccc(C=O)nc23)CC1 [QN 32, 8-(3-(4-(Prop-2-yn-1-yl)piperazin-1-yl)propoxy)quinoline-2-carbaldehyde]
Papp at 4 h, 100 μmol/L (BBB-PAMPA permeability): 50.3 ± 2.8 ×10⁻⁶ cm/s
BBB–PAMPA permeability −LogPe (BBB-PAMPA permeability): 4.3 log [cm/s]
Inhibition of Aβ1–42 aggregation (Aβ1–42): 40.7 ± 2.4%∗
Radical-scavenging DPPH assay EC50 [1]: n.a. ^d (n.a., not active–% DPPH reduced at 100 μmol/L concentration lower than 10%)

CCN(C)C(=O)Oc1cccc([C@H](C)N(C)C)c1 [rivastigmine, reference compound]
step-through latency in retention trial versus scopolamine-treated control [2]: significant differences
motor effects shortly after administration (mice): caused muscle tremor and transient motor coordination deficits

COc1cccc2cc(/C=[N+](\[O-])C(C)(C)C)c(OCCCN3CCCCC3)nc12 [QN 1, (Z)-N-tert-Butyl-1-(8-methoxy-2-(3-(piperidin-1-yl)propoxy)quinolin-3-yl)methanimine oxide]
IC50 (hBChE): 0.707 ± 0.0454 µM

[O-]/[N+](=C\c1cc2cccc(O)c2nc1Cl)Cc1ccccc1 [QN 12, (Z)-N-Benzyl-1-(2-chloro-8-hydroxyquinolin-3-yl)methanimine oxide]
IC50 (hBChE): 10.7 ± 0.7 µM

C#CCN1CCN(CCCOc2cccc3cc(/C=[N+](\[O-])Cc4ccccc4)c(Cl)nc23)CC1 [QN 8, (Z)-N-Benzyl-1-(2-chloro-8-(3-(4-(prop-2-yn-1-yl)piperazin-1-yl)propoxy)quinolin-3-yl)methanimine oxide]
IC50 (hBChE): 14.8 ± 2.1 µM
IC50 (hMAO-B): 13.8 ± 1.8 µM
IC50 (hMAO-A): 14.9 ± 1.2 µM

CNC1=Nc2ccc(Cl)cc2C(c2ccccc2)=[N+]([O-])C1 [chlordiazepoxide]
Ki ([3]; read-out: eeAChE Ki): 50 ± 7 µM
Ki ([4]; read-out: eqBChE Ki): 0.3 ± 0.04 µM

C#CCN1CCN(CCCOc2cccc3ccc(/C=[N+](\[O-])C(C)(C)C)nc23)CC1 [QN 15, (Z)-N-tert-Butyl-1-(8-(3-(4-(prop-2-yn-1-yl)piperazin-1-yl)propoxy)quinolin-2-yl)methanimine oxide]
Papp at 4 h, 100 μmol/L (BBB-PAMPA permeability): 72.2 ± 2.7 ×10⁻⁶ cm/s
BBB–PAMPA permeability −LogPe (BBB-PAMPA permeability): 4.1 log [cm/s]
Inhibition of Aβ1–42 aggregation (Aβ1–42): n.i. ^e (n.i., no inhibition <20%)
Radical-scavenging DPPH assay EC50 [1]: n.a. ^d (n.a., not active–% DPPH reduced at 100 μmol/L concentration lower than 10%)

COc1cccc2cc(/C=[N+](\[O-])Cc3ccccc3)c(OCCCN3CCCCC3)nc12 [QN 2, (Z)-N-Benzyl-1-(8-methoxy-2-(3-(piperidin-1-yl)propoxy)quinolin-3-yl)methanimine oxide]
IC50 (hAChE): 39.6 ± 6.1 µM
IC50 (hBChE): 0.415 ± 0.0167 µM

CC(C)(C)/[N+]([O-])=C/c1ccccc1 [PBN, α-phenyl-tert-butylnitrone]
hAChE inhibition (in words) (hAChE): no inhibition
eeAChE inhibition (in words) [3]: no inhibition
IC50 ([4]; read-out: eqBChE IC50): 478 ± 38 µM
murine AChE Ki′ (murine AChE): 2990 µM
Ki (murine AChE; read-out: murine AChE Ki): 580 µM

Oc1ccc(/C=C/c2cc(O)cc(O)c2)cc1 [resveratrol, reference compound]
EC50 [1]: 50.1 µM

C#CCN1CCN(CCCOc2nc3c(OC)cccc3cc2/C=[N+](\[O-])C(C)(C)C)CC1 [QN 3, (Z)-N-tert-Butyl-1-(8-methoxy-2-(3-(4-(prop-2-yn-1-yl)piperazin-1-yl)propoxy)quinolin-3-yl)methanimine oxide]
IC50 (hBChE): 2.06 ± 0.04 µM
